Experimental data from US10077268B2, “FXR agonists and methods for making and using” (Salk Institute for Biological Studies, priority 2014, dated 2018).
Entries after “also recorded” stand apart in the source; their conditions may differ.

Legend:
TGR5 null mice = assay: HFD-fed TGR5-null mice; format: in vivo; conditions: 100 mg/kg/day PO 5 weeks
Protocol: HFD-fed TGR5-null mice were treated with vehicle or fexaramine (100 mg/kg os daily for 5 weeks with HFD, n=10). (A) Ileal FXR target gene expressions (B) Serum BA levels (C) Fasting glucose levels (D) Glucose tolerance test (E) Core body temperature (F) Oxygen consumption rate (G) Carbon dioxide production (H) Gene expression in BAT (I) Body weight curve (J) Body composition by MRI (K) Insulin Tolerance Test (L) Hepatic gene expression (M) Hepatic TG levels (N) and Gene expression in soleus of TGR5 knockout mice with and without fexaramine treatment. For bar graphs, vehicle is left bar, Fex is right bar. Data represent the mean±SD. Statistical analysis was performed with the Student's t test. *p<0.05, **p<0.01.
To address this possibility, HFD-fed TGR5 null mice were chronically treated with Fex (100 mg/kg/day PO for 5 weeks). […] In particular, the anti-lipogenic effects of Fex in the liver appear to require TGR5 activation, as key hepatic lipogenic genes and liver triglyceride content were not affected by Fex treatment (FIGS. 11L, 11M).

[1] = tested on: gene and protein expression in BAT, ileum, liver and adipose tissues; assay: Tissue gene and protein expression in treated DIO mice; format: in vivo
Protocol: (§1) Mice were fed HFD for 14 weeks and then administered vehicle or fexaramine (100 mg/kg) daily by oral administration for 5 weeks with HFD. Data represent the mean±STD. Statistical analysis was performed with the Student's t test (*p<0.05, **p<0.01).
FIGS. 7A-7H show a comparative expression chart and bar charts illustrating that fexaramine increased endogenous FGF15 signaling and changes in BA composition. Mice were fed HFD for 14 weeks and then administered daily oral injections of vehicle or fexaramine (100 mg/kg) for 5 weeks with HFD. In the bar graphs, open bars represent vehicle treatment and solid bars represent fexaramine treatment, and data represent the mean±STD. Statistical analysis was performed with the Student's t test (*p<0.05, **p<0.01).
Mice were fed on HFD for 14 weeks and subsequently subjected to daily PO injection of vehicle or fexaramine (100 mg/kg) for 5 weeks with HFD. In the bar graphs, open bars are vehicle, solid bars of fexaramine, and data represent the mean±STD. Statistical analysis was performed with the Student's t test (*p<0.05, **p<0.01).
Mice were fed HFD for 14 weeks and then subjected to daily PO injection of vehicle (open bar in bar graphs) or fexaramine (100 mg/kg) (solid bar in bar graphs) for 5 weeks with HFD.

normal chow-fed mice = assay: Chronic oral treatment of normal chow-fed mice; format: in vivo
Protocol: FIGS. 3A-3D are line graphs and a bar graph showing the effects of fexaramine administration in normal chow-fed mice. The mice were treated with vehicle (left bar) or fexaramine (100 mg/kg) (right bar) via PO for 5 weeks. Data represent the mean±STD. Statistical analysis as performed with the Student's t test (*p<0.05, **p<0.01).
To investigate the physiological effects of intestinal FXR activation by fexaramine, mice were subjected to chronic fexaramine (100 mg/kg Fex) PO treatment for 5 weeks.

[2] = LC/MS quantification of serum fexaramine after PO or IP; format: in vivo, mice
Protocol: FIG. 1D is a schematic diagram illustrating an experimental procedure used to evaluate fexaramine, where mice were treated with vehicle or fexaramine (100 mg/kg) via PO or IP injection, and LC/MS quantification of serum fexaramine was conducted five days later.
FIG. 1E is a bar chart illustrating serum fexaramine concentrations after administration as described in FIG. 1D. Data represent mean values±STD. Statistical analysis was performed with the Student's t test (*p<0.05, **p<0.01).
Upon exploration of the in vivo effects of fexaramine (Fex) administration, it was discovered that due to ineffectual absorption, oral (PO) and intraperitoneal (IP) drug delivery produced very different effects (FIGS. 1D and 1E).

[3] = tested on: diet-induced obesity (DIO) mice; assay: Chronic oral treatment of diet-induced obesity (DIO) mice; format: in vivo; conditions: for glucose tolerance and insulin sensitivity (GTT, ITT): DIO mice, PO 5 weeks
Protocol: FIGS. 2A-2G are graphs illustrating the reduction of diet-induced obesity and improvement in metabolic homeostasis with fexaramine Mice were fed a high fat diet (HFD) for 14 weeks and then administered daily oral injections of vehicle (open boxes) or fexaramine (100 mg/kg) (solid boxes) for 5 weeks with HFD. Data represent the mean±STD. Statistical analysis was performed with the Student's t test (*p<0.05, **p<0.01).
FIG. 4A is a line graph showing the effects of fexaramine at various dosage levels on the body weight of mice fed a HFD for 14 weeks and then administered daily oral injections of vehicle or fexaramine (10, 50 or 100 mg/kg) for 5 weeks with HFD. Data represent the mean±STD. Statistical analysis was performed with the Student's t test (*p<0.05, **p<0.01).
as §1
The physiological effects of fexaramine in established obesity (diet-induced obesity, DIO) models were evaluated. C57BL/6J mice were fed a diet of 60% fat for 14 weeks and then treated PO with vehicle or fexaramine (100 mg/kg) for 5 weeks.

[4] = tested on: serum bile acid composition; assay: Serum bile acid composition by mass spectrometry; format: in vivo, mice
Protocol: Mice fed a HFD for 14 weeks were maintained on a HFD and treated with vehicle or fexaramine (100 mg/kg/day per os for 5 week). Serum bile acid composition was determined by mass spectrometry. N.D not determined.

COC(=O)/C=C/c1cccc(N(Cc2ccc(-c3ccc(N(C)C)cc3)cc2)C(=O)C2CCCCC2)c1 [fexaramine]
FXR target genes in the ileum of TGR5 null mice (TGR5 null mice): induced multiple FXR target genes
core body temperature and metabolic rate in TGR5 null mice (TGR5 null mice): somewhat blunted increases
fasting glucose levels and glucose tolerance in TGR5 null mice (TGR5 null mice): moderate improvements
key hepatic lipogenic genes and liver triglyceride content in TGR5 null mice (TGR5 null mice): not affected
serum BA levels in TGR5 null mice (TGR5 null mice): lowered serum BA levels
weight gain or insulin sensitivity in TGR5 null mice (TGR5 null mice): no significant changes
D102, downstream target of TGR5, in brown adipose tissue ([1]; BAT): induce
PKA activity ([1]; BAT): increased PKA activity
expression of ERRy, PGC-1α, PGC-1β and target genes in BAT ([1]; BAT): induction
phosphorylation level of p38 ([1]; BAT): increased the phosphorylation level of p38
FGF15 expression in intestine ([1]; RNA-Seq, ileal FXR target genes): dramatically up-regulated
OXPHOS activity, transcriptional changes in inguinal, gonadal and brown adipose depots ([1]; RNA-sequencing): selectively enhance OXPHOS activity only in BAT
HSL phosphorylation and serum levels of free fatty acids ([1]; adipose depots, serum): pronounced increase
serum catecholamine levels and β3-adrenergic receptor expression ([1]; chronic treatment): increased serum catecholamine levels and β3-adrenergic receptor expression
S6K phosphorylation (mTORC1 pathway) ([1]; gonadal WAT): reduced S6K phosphorylation
levels of IKK-ε and TANK-binding kinase 1 (TBK1) ([1]; gonadal adipose tissue): reduced levels
expression of brown fat-like signature genes ([1]; inguinal adipose tissue): increased the expression
respiratory capacity in the stromal vascular fraction ([1]; inguinal adipose tissue): increased respiratory capacity
abundance of multi-locular, UCP1-expressing adipocytes ([1]; inguinal adipose tissue, immunohistochemistry): substantial increase
expression of mucosal defense genes Occludin and Muc2 ([1]; intestine): increased expression
expression of CYP8B1 and CYP27A1 ([1]; liver): not affected
expression of liver FXR target genes SHP and BSEP ([1]; liver): not altered
hepatic CYP7A1 expression, mRNA and protein level ([1]; liver): significantly repressed
hepatic expression of gluconeogenic and lipogenic genes ([1]; liver): reduced hepatic expression
circulating FGF15 ([1]; serum): increase in circulating FGF15
glucose homeostasis in normal chow-fed mice (normal chow-fed mice; across a range of doses): no effects observed
weight gain, basal metabolic activity and glucose tolerance (normal chow-fed mice; chow-fed, 100 mg/kg PO 5 weeks): indistinguishable from vehicle-treated mice
serum Fex level after PO compared to IP ([2]; acute PO vs IP, 100 mg/kg): 10 % of IP levels
absorption after oral delivery ([2]; oral): poorly absorbed
ambulatory counts ([3]; 100 mg/kg PO 5 weeks): more active than control mice
intestinal toxicity (histology of ileum and colon) ([3]; 100 mg/kg PO 5 weeks): no signs of intestinal toxicity
overall fat mass (MRI) ([3]; 100 mg/kg PO 5 weeks): reduced overall fat mass
respiratory exchange ratio ([3]; 100 mg/kg PO 5 weeks): No changes
serum lactate levels ([3]; 100 mg/kg PO 5 weeks): significantly decreased
serum levels of inflammatory cytokines TNFα, IL-1α, IL-1β, IL-17 and MCP-1 ([3]; 100 mg/kg PO 5 weeks): markedly decreased
wet weights of subcutaneous (inguinal) and visceral (gonadal and mesenteric) adipose depots ([3]; 100 mg/kg PO 5 weeks): significant reductions
serum lactate levels ([3]; 100 mg/kg PO 5 weeks, listed as Fex): significantly reduced
prevention of weight gain, dose dependence ([3]; 10, 50 or 100 mg/kg PO 5 weeks): dose-dependent manner
glucose tolerance and insulin sensitivity (GTT, ITT) [3]: improved glucose clearance; also recorded: improved insulin sensitivity
glucose tolerance and insulin sensitivity (GTT, ITT) ([3]; listed as Fex): dose-dependent improvements
weight gain ([3]; HFD 14 weeks, then 100 mg/kg PO 5 weeks): prevented weight gain
cross-sectional area of adipocytes in visceral depots (gonadal, mesenteric) ([3]; chronic treatment): markedly reduced
weight gain at the highest dose ([3]; highest dose): almost completely abrogated
accumulation of lipid vesicles in brown adipose tissue (BAT) ([3]; histology): markedly reduced
hepatic triglycerides ([3]; liver): marked decrease
lipid droplets in liver tissue (histology) ([3]; liver): reduction in lipid droplets
serum alanine aminotransferase (ALT) levels ([3]; serum): decreased
glucose, insulin, leptin, cholesterol and resistin levels ([3]; serum, 100 mg/kg PO 5 weeks): reduced glucose, insulin, leptin, cholesterol, and resistin levels
food intake ([3]; versus vehicle-treated control mice): not attributable to difference in food intake
carbon dioxide production (VCO2) ([3]; weight-matched DIO mice): exhaled more carbon dioxide
oxygen consumption (VO2) ([3]; weight-matched DIO mice): consistently higher oxygen consumption
bile acid pool size [4]: reducing the bile acid pool size
fraction of lithocholic acid among circulating bile acids [4]: increasing the fraction of the secondary bile acid, lithocholic acid
fraction of taurocholic acid among circulating bile acids [4]: decreasing the fraction of taurocholic acid
ratio of unconjugated to conjugated cholic acid ([4]; 100 mg/kg PO 5 weeks): remarkably increased
